Laboratory results published in article PMC7560981 (Medicinal chemistry research : an international journal for …, 2020).
Like-named read-outs stand apart in the source and are kept apart here. Blank lines part the entries; values can stand above or below the compound they belong to.

What was measured:
[1] = target: H4-stimulated PARP1 (human Parp-1) (Homo sapiens, UniProt P09874); assay: Inhibition of H4-stimulated PARP1 activation; format: biochemical; conditions: human Parp-1, NAD+
[2] = Maximum kinetic aqueous solubility; conditions: 2% DMSO/phosphate buffer pH 7.4; theoretical maximum 200 μM
[3] = 90 min, pH 7.4
[4] = Stability in mouse liver microsomes; format: in vitro ADME; conditions: 1 μM, 37 °C
[5] = Stability in human liver microsomes; format: in vitro ADME; conditions: 1 μM, 37 °C
[6] = ref Karpova et a., 2019; cited from earlier work
[7] = ref Karpova et a., 2019; cited from earlier work; remark: listed apart in the source
[8] = test system: cancer cell lines; conditions: ref Nieborowska-Skorska et al., 2019, cited from earlier work
[9] = test system: Nalm-6 isogenic RAD54−/− human leukemia cells; format: cell-based; conditions: clonogenic assay
[10] = H4/PARP Inhibition IC50, histone H4-coated plates
[11] = read-out: H4/PARP Inhibition IC50, histone H4-coated plates

Chain of H4-stimulated PARP1 (human Parp-1) (P09874 whole entry): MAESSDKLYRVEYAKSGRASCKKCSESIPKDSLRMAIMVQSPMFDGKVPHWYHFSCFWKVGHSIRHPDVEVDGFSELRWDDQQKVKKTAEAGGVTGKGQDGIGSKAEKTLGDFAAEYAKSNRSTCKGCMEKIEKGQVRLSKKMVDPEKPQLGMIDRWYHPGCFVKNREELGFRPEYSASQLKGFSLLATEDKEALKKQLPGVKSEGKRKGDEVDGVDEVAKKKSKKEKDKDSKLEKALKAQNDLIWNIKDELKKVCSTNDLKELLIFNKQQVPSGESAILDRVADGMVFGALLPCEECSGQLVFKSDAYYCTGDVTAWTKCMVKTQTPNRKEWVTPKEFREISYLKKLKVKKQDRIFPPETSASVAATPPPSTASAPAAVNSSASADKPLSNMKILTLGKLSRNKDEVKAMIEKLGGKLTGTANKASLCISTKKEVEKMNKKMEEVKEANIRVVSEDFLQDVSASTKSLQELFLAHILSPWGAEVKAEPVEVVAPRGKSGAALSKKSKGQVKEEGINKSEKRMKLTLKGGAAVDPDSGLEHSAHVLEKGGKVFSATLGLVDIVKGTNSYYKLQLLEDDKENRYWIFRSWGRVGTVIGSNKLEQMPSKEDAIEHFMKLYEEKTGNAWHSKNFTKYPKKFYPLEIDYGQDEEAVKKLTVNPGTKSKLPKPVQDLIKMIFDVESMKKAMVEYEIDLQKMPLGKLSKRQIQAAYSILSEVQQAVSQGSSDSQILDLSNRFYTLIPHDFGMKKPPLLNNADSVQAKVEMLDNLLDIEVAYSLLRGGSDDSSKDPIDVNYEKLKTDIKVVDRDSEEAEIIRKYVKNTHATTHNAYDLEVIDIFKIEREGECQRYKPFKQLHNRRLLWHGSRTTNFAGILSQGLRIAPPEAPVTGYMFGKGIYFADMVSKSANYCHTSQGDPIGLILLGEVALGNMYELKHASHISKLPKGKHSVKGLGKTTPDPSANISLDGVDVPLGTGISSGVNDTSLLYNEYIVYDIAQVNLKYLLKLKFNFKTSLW

Compound: CC1(C)CC[N+](C)(CC(=O)OC2CCCCCCCCCCC2)CC1.[I-] [Compound 4, 1-(2-(Cyclododecyloxy)-2-oxoethyl)-1,4,4-trimethylpiperidin-1-ium iodide]
- IC50 [1, 10]: 45.6 nM
- Max. Aq. Solubility [2]: 95 µM

Compound: CCC[N+]1(CC(=O)OC2CCCCCCCCCCC2)CCCCC1 [Compound 11, 1-(2-(Cyclododecyloxy)-2-oxoethyl)-1-(1-propyl)piperidin-1-ium iodide]
- IC50 [1, 10]: 142 nM

Compound: C[N+]1(CC(=O)OC2CCCCCCCCCCC2)CCCCCC1 [Compound 3, 1-(2-(Cyclododecyloxy)-2-oxoethyl)-1-methylazepan-1-ium iodide]
- IC50 [1, 10]: 54 nM

Compound: C[N+]1(CC(=O)OC2CCCCCCCCCCC2)CCOCC1.[I-] [Compound 5, 4-(2-(Cyclododecyloxy)-2-oxoethyl)-4-methylmorpholin-4-ium iodide]
- IC50 [1, 10]: 34.5 nM
- Max. Aq. Solubility [3]: 200 µM

Compound: C[N+]1(CC(=O)OC2CCCCCCCCCCC2)CCCC1.[I-] [Compound 2]
- IC50 [1, 11]: 52.4 nM
- Liver Microsomal Stability (t1/2, min) Mouse + NADPH [4]: 3.8 min
- Liver Microsomal Stability (t1/2, min) Human + NADPH [5]: < 2 min

Compound: C[N+]1(CC(=O)OC2CCCCCCCCCCC2)CCSCC1.[I-] [Compound 6, 4-(2-(Cyclododecyloxy)-2-oxoethyl)-4-methylthiomorphilin-4-ium iodide]
- IC50 [1, 11]: 156 nM
- Liver Microsomal Stability (t1/2, min) Mouse + NADPH [4]: 4 min
- Liver Microsomal Stability (t1/2, min) Human + NADPH [5]: < 2 min

Compound: CC(C)(C)OC(=O)N1CC[N+](C)(CC(=O)OC2CCCCCCCCCCC2)CC1.[I-] [Compound 8, 4-(tert-Butoxycarbonyl)-1-(2-(cyclodedecyloxy)-2-oxoethyl)-1-methylpiperazin-1-ium iodide]
- IC50 [1, 11]: 55.8 nM
- Liver Microsomal Stability (t1/2, min) Mouse + NADPH [4]: 4.1 min
- Liver Microsomal Stability (t1/2, min) Human + NADPH [5]: < 2 min

Compound: C[N+]1(CC(=O)OC2CCCCCCCCCCC2)CCC(Cc2ccccc2)CC1 (stereo not drawn) [Compound 9, 4-(Benzyl)-1-(2-(cyclododecyloxy)-2-oxoethyl)-1-methylpiperidin-1ium iodide]
- IC50 [1, 10]: 61.8 nM

Compound: C[N+]1(CC(=O)OC2CCCCCCCCCCC2)CCCCC1.[I-] [Compound 1, 1-(2-(Cyclododecyloxy)-2-oxoethyl)-1-methylpiperidin-1-ium iodide]
- IC50 [1, 10]: 104 nM
- in vivo half-life (in words) [6]: longer than expected
- plasma protein binding (in words) [7]: relatively high
- effect in combination with olaparib (in words) ([8]; a number of cell lines): synergistic effect
- potency in in vitro proliferation assays compared with olaparib (in words) [8]: more potent than olaparib

Compound: C[N+]1(CC(=O)OC2CCCC2)CCCCC1.[I-] [Compound 17, 1-(2-(Cyclopentyloxy)-2-oxoethyl)-1-methylpiperidin-1-ium iodide]
- IC50 [1, 10]: 57.1 nM
- Max. Aq. Solubility [3]: 200 µM

Compound: CC[N+]1(CC(=O)OC2CCCCCCCCCCC2)CCCCC1.[I-] [Compound 10, 1-(2-(Cyclododecyloxy)-2-oxoethyl)-1-ethylpiperidin-1-ium iodide]
- IC50 [1, 10]: 174 nM
- Max. Aq. Solubility [3]: 200 µM

Compound: C[N+]1(CC(=O)OC2CCCCCCCCCCC2)CCNCC1.[I-] [Compound 7, 1-(2-(Cyclododecyloxy)-2-oxoethyl)-1-methylpiperazinium iodide]
- IC50 [1, 10]: 466 nM
- anti-clonogenic activity against BRCA-deficient NALM6 leukemia cells (in words) [9]: potent anti-clonogenic activity

Results, then the compound that gave them:

- IC50 [1, 10]: 77.1 nM
Compound: C[N+]1(CC(=O)OC2CCCCC2)CCCCC1 [Compound 16, 1-(2-(Cyclohexyloxy)-2-oxoethyl)-1-methylpiperidin-1-ium iodide]

- IC50 [1, 11]: 191 nM
Compound: CN(C(=O)CO[N+]1(C)CCCCC1)C1CCCCCCCCCCC1 [Compound 18, 1-(2-(Cyclododecyl(methyl)amino)-2-oxoethoxy)-1-methylpiperidin-1ium iodide]

- IC50 [1, 10]: 53.7 nM
Compound: C[N+]1(CC(=O)OC2CCCCCCCCC2)CCCCC1 [Compound 14, 1-(2-(Cyclodecyloxy)-2-oxoethyl)-1-methylpiperidin-1-ium iodide]

- IC50 [1, 10]: 136 nM
Compound: CCCC[N+]1(CC(=O)OC2CCCCCCCCCCC2)CCCCC1 [Compound 12, 1-(2-(Cyclododecyloxy)-2-oxoethyl)-1-(1-butyl)piperidin-1-ium iodide]

- IC50 [1, 10]: 258 nM
Compound: CCCCC[N+]1(CC(=O)OC2CCCCCCCCCCC2)CCCCC1 [Compound 13, 1-(2-(Cyclododecyloxy)-2-oxoethyl)-1-(1-pentyl)piperidin-1-ium iodide]

- IC50 [1, 10]: 80 nM
Compound: C[N+]1(CC(=O)OC2CCCCCCC2)CCCCC1 [Compound 15, 1-(2-(Cyclooctyloxy)-2-oxoethyl)-1-methylpiperidin-1-ium iodide]
